In ChEMBL document CHEMBL3804811 (J Med Chem, 2016):
pIC50: −log10 of the molar value.

Assays:
NCI-H2228 = assay: Antiproliferative activity against human NCI-H2228 cells expressing ALK protein incubated for 72 hrs by cell titer-glo assay; details: NCI-H2228, 72 h
[1] = Half life in Sprague-Dawley rat at 10 mg/kg, po administered as single dose by LC-MS/MS analysis; format: ADME, organism-based; details: in vivo
[2] = Intrinsic clearance in rat hepatocytes at […] after 10 to 90 mins by LC-MS/MS analysis; format: ADME, cell-based, Hepatocyte; details: read-out: CLH
[3] = target: T1, Eukaryotic translation initiation factor 2-alpha kinase 3 (Homo sapiens, UniProt Q9NZJ5); assay: Inhibition of PERK (unknown origin) in presence of gamma33-ATP
T1 sequence (Q9NZJ5 whole entry): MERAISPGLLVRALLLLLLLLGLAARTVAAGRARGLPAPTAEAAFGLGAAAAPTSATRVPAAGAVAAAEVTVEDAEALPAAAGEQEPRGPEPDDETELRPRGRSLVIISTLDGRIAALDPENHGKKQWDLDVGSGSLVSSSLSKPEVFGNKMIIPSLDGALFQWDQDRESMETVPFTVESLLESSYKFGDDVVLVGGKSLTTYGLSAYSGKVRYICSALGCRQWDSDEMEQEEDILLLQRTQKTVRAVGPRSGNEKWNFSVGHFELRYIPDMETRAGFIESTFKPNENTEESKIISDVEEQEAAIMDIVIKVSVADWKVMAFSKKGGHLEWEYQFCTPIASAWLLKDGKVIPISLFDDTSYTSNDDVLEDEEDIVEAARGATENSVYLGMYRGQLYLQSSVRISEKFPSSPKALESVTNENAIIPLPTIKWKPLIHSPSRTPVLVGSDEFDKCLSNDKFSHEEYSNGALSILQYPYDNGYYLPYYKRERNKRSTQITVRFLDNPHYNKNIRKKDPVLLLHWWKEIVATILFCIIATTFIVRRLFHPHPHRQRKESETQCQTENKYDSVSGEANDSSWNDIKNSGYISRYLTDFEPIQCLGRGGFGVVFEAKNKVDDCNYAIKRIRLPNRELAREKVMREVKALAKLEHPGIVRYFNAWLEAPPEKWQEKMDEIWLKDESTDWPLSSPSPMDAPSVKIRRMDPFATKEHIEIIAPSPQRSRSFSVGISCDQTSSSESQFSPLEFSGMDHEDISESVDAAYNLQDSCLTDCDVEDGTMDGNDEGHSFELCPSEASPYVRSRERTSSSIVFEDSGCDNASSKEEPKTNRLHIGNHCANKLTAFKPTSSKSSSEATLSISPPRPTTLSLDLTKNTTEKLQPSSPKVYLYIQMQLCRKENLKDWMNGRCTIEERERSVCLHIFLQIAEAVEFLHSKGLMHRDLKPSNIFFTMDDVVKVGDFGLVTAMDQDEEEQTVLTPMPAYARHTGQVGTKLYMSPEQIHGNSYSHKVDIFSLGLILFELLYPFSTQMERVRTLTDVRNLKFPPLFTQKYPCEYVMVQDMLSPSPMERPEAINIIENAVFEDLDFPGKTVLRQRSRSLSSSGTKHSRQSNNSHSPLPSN

[4] = target: T2, Eukaryotic elongation factor 2 kinase (Homo sapiens, UniProt O00418); assay: Inhibition of EEF2K (unknown origin) in presence of gamma33-ATP
T2 sequence (O00418 whole entry): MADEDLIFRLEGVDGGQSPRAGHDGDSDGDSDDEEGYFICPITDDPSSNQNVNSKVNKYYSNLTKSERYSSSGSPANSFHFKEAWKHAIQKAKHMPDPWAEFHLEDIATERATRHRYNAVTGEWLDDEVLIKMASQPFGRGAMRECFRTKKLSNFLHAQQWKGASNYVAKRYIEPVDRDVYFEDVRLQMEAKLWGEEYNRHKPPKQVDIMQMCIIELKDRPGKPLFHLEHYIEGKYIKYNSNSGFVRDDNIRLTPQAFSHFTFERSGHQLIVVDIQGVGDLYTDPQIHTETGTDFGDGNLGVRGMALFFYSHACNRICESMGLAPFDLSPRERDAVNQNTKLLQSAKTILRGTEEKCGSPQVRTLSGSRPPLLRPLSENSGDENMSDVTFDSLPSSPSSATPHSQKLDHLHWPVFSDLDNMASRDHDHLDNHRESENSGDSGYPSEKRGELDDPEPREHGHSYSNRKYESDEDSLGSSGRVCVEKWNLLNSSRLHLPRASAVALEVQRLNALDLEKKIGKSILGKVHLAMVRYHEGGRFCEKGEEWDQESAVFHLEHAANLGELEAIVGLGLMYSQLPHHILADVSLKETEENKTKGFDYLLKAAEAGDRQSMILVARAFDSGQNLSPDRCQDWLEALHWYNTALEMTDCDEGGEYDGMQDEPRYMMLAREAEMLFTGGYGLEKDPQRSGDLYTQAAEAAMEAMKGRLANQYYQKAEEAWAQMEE

[5] = Antiproliferative activity against human SUP-M2 cells expressing ALK protein incubated for 72 hrs by cell titer-glo assay; format: functional, cell-based; details: SUP-M2, 72 h
[6] = Half life in Beagle dog at 10 mg/kg, po administered as single dose by LC-MS/MS analysis; format: ADME, organism-based, Canis lupus familiaris; details: in vivo
[7] = Antiproliferative activity against human SU-DHL1 cells expressing ALK protein incubated for 72 hrs by cell titer-glo assay; format: functional, cell-based; details: SU-DHL-1, 72 h
[8] = target: T3, Inhibitor of nuclear factor kappa-B kinase subunit beta (Homo sapiens, UniProt O14920); assay: Inhibition of IKK2 (unknown origin) in presence of gamma33-ATP
T3 sequence (O14920 whole entry): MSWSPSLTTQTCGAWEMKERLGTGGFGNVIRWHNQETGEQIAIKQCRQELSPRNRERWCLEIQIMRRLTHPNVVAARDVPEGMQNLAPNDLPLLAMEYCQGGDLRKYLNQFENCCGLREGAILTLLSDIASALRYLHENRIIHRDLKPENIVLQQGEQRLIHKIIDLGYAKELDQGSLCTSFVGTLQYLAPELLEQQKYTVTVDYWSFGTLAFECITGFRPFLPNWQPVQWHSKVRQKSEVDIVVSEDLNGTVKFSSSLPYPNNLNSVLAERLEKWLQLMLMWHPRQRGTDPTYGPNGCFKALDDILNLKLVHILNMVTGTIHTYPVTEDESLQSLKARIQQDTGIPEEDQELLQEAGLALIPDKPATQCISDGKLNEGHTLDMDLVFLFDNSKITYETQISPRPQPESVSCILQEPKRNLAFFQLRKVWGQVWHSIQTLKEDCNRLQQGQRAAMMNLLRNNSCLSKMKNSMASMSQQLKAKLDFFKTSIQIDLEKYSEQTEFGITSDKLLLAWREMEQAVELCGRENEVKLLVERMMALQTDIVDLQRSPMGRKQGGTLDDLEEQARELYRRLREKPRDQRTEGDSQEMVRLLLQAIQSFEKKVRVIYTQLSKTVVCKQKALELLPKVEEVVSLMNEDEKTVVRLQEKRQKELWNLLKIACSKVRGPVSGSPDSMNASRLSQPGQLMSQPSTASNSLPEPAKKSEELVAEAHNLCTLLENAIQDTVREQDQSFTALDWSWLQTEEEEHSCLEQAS

KM12 = assay: Antiproliferative activity against human KM12 cells expressing TRKA protein incubated for 72 hrs by cell titer-glo assay; details: KM12, 72 h

pIC50 (NCI-H2228): 7.17 | half-life [1]: 3.8 h | CLint scaled [2]: 87 mL/min/kg | pIC50 [3]: < 5.00 | pIC50 [4]: < 5.00 | half-life [6]: 15.2 h | pIC50 [8]: < 5.00
Structure (SMILES): CN1CCN(c2ccc(C(=O)Nc3n[nH]c4ccc(Cc5cc(F)cc(F)c5)cc34)c(NC3CCOCC3)c2)CC1 [ENTRECTINIB]
pIC50 [5]: 7.39 | pIC50 [7]: 7.62 | pIC50 (KM12): 7.77
